Data from patent publication US9446064B2, “Combination therapy for treating cancer” (Epizyme, Inc., priority 2013, dated 2016).

Assays:
MV4-11 (MLL-AF4) cells = assay: Combination proliferation study with Compound A2 (Cell Titer Glo, Chou-Talalay combination index); format: cell-based; conditions: 7 day cotreatment
Procedure: (§1) The acute myelogenous leukemia cell lines MV4-11 (MLL-AF4) and MOLM-13 (MLL-AF9) were obtained from American Type Culture Collection (ATCC; Rockville, Md.) and Deutsche Sammlung von Mikroorganismen and Zellkulturen (DSMZ; Braunschweig, Germany) respectively.
(§2) Initial proliferation studies were performed to determine the IC50 of a given compound in each cell line.
(§3) Compounds were evaluated for synergy in the co-treatment phase by testing the compounds in a concentration range which was bracketed around their IC50 values. […] DMSO concentration was kept at 0.1% v/v.
(§4) Further, strong synergism is achieved when the CI value falls below 0.3.

MOLM-13 (MLL-AF9) cells = assay: as above; format: cell-based; conditions: 7 day cotreatment
Procedure: as §1, §2, §3, §4

SMILES | Combination effect with Compound A2 (combination index) (MV4-11 (MLL-AF4) cells) | Combination effect with Compound A2 (combination index) (MOLM-13 (MLL-AF9) cells)
CC(C)(C)c1cc(NC(=O)Nc2ccc(-c3cn4c(n3)sc3cc(OCCN5CCOCC5)ccc34)cc2)no1 [Quizartinib] | synergy | 
N[C@@H]1C[C@H]1c1ccccc1 (racemic) [Tranylcypromine] | synergy | synergy
Nc1ccn([C@@H]2O[C@H](CO)[C@@H](O)[C@@H]2O)c(=O)n1 [Ara-C] | Synergy (A combination index less than one indicates synergy) | 
COc1cc2c(cc1-c1c(C)noc1C)ncc1[nH]c(=O)n([C@H](C)c3ccccn3)c12 [IBET-151] | Synergy (A combination index less than one indicates synergy) | 
CC1(C)CCC(c2ccc(Cl)cc2)=C(CN2CCN(c3ccc(C(=O)NS(=O)(=O)c4ccc(N[C@H](CCN5CCOCC5)CSc5ccccc5)c(S(=O)(=O)C(F)(F)F)c4)cc3)CC2)C1 [Navitoclax] | synergy | synergy
